# Measurements reported in ChEMBL document CHEMBL3751684, “2,3-Dihydrobenzofuran privileged structures as new bioinspired lead compounds for the design of mPGES-1 inhibitors” (Bioorg Med Chem, 2016).
# Calls of active or inactive are those of the source. The calls are words filed in the database; no cut-off is given here.
# Tests used:
# Prostaglandin E synthase = target: T1, Prostaglandin E synthase (Homo sapiens, UniProt O14684); test: Inhibition of PGES-1 in IL-1beta stimulated human A549 cell microsomes using PGH2 as substrate assessed as suppression of PGE2 formation preincubated for 15 mins followed by substrate addition by reversed phase-HPLC analysis
# T1 sequence (O14684 whole entry): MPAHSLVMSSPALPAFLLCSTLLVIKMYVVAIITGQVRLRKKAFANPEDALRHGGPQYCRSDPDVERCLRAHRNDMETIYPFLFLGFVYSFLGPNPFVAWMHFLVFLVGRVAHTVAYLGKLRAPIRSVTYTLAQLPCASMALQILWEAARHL
# [1] = target: T2, Prostaglandin E synthase (Homo sapiens) (UniProt O14684); test: Inhibition of PGES-1 in IL-1beta stimulated human A549 cell microsomes using PGH2 as substrate assessed as suppression of PGE2 formation at 10 uM preincubated for 15 mins followed by substrate addition by reversed phase-HPLC analysis
# T2 sequence (whole entry): T1 sequence (O14684 whole entry)
IC50 (Prostaglandin E synthase) [nM],inhibition [1],SMILES
2100,,O=C(/C=C/c1cc(O)c2c(c1)[C@@H](C(=O)OCCc1ccccc1)[C@H](c1ccc(O)c(O)c1)O2)OCCc1ccccc1
2800,,O=C(/C=C/c1cc(O)c2c(c1)[C@H](C(=O)OCCc1ccccc1)[C@@H](c1ccc(O)c(O)c1)O2)OCCc1ccccc1
3600,Active,CCOC(=O)/C=C/c1cc(O)c2c(c1)[C@@H](C(=O)OCC)[C@H](c1ccc(O)c(O)c1)O2 (racemic)
2000,,O=C(/C=C/c1cc(O)c2c(c1)[C@@H](C(=O)OCCc1ccccc1)[C@H](c1ccc(O)c(O)c1)O2)OCCc1ccccc1 (racemic) [listing 1 of 2 here]
2100,Active,CCCCOC(=O)/C=C/c1cc(O)c2c(c1)[C@@H](C(=O)OCCCC)[C@H](c1ccc(O)c(O)c1)O2 (racemic)
8500,Active,COC(=O)/C=C/c1cc(O)c2c(c1)[C@@H](C(=O)OC)[C@H](c1ccc(O)c(O)c1)O2 (racemic)
,inactive,C=Cc1ccc(/C=C/c2ccc3c(c2)[C@@H](c2ccc(C=C)cc2)[C@H](c2ccc(O)cc2)O3)cc1 (racemic)
,Active,COc1cc(/C=C/c2ccc3c(c2)[C@@H](c2cc(OC)cc(OC)c2)[C@H](c2ccc(O)cc2)O3)cc(OC)c1 (racemic)
,Active,COc1cc([C@@H]2Oc3c(OC)cc(/C=C/c4cc(OC)c(OC)c(OC)c4)cc3[C@H]2c2cc(OC)c(OC)c(OC)c2)ccc1O (racemic)
,Active,COc1ccc(/C=C/c2ccc3c(c2)[C@@H](c2ccc(OC)cc2)[C@H](c2ccc(O)cc2)O3)cc1 (racemic)
,Active,O=C(/C=C/c1cc(O)c2c(c1)[C@@H](C(=O)OCCc1ccccc1)[C@H](c1ccc(O)c(O)c1)O2)OCCc1ccccc1 (racemic) [listing 2 of 2 here]
